Reference: ChEMBL document CHEMBL2010682, “Asperolides A-C, tetranorlabdane diterpenoids from the marine alga-derived endophytic fungus Aspergillus wentii EN-48” (J Nat Prod, 2012)
pIC50: −log10 of the molar value. Values after ≈ are worked out from the molar mass of the structure shown. Active and inactive are the calls of the source. No cut-off for these calls is given here.

How the values were obtained:
HeLa = test: Cytotoxicity against human HeLa cells; type: functional, cell-based; conditions: for pIC50: Homo sapiens, HeLa, read-out: IC50
HepG2 = test: Cytotoxicity against human HepG2 cells; type: functional, cell-based; conditions: for IC50: hepg2; for pIC50: Homo sapiens, HepG2, read-out: IC50
MCF7 = test: Cytotoxicity against human MCF7 cells; type: functional, cell-based; conditions: for pIC50: Homo sapiens, MCF7, read-out: IC50; for IC50: mcf7
MDA-MB-231 = test: Cytotoxicity against human MDA-MB-231 cells; type: functional, cell-based; conditions: for pIC50: Homo sapiens, MDA-MB-231, read-out: IC50
NCI-H460 = test: Cytotoxicity against human NCI-H460 cells; type: functional, cell-based; conditions: for pIC50: Homo sapiens, NCI-H460, read-out: IC50
SW1990 = test: Cytotoxicity against human SW1990 cells; type: functional, cell-based; conditions: for pIC50: Homo sapiens, SW1990, read-out: IC50
Candida albicans = test: Antifungal activity against Candida albicans after 18 hrs by broth microdilution method; type: functional
SMMC-7721 = test: Cytotoxicity against human SMMC7721 cells; type: functional, cell-based; conditions: for pIC50: Homo sapiens, SMMC-7721, read-out: IC50
Staphylococcus aureus = test: Antibacterial activity against methicillin-resistant Staphylococcus aureus after 18 hrs by broth microdilution method; type: functional
Pseudomonas fluorescens = test: Antibacterial activity against Pseudomonas fluorescens after 18 hrs by broth microdilution method; type: functional
Pseudomonas aeruginosa = test: Antibacterial activity against Pseudomonas aeruginosa after 18 hrs by broth microdilution method; type: functional
[1] = system: Staphylococcus epidermidis; test: Antibacterial activity against Staphylococcus epidermidis after 18 hrs by broth microdilution method; type: functional

Compound | pIC50 (HeLa) | IC50 (HepG2) | pIC50 (MCF7) | pIC50 (MDA-MB-231) | pIC50 (NCI-H460) | pIC50 (SW1990) | MIC (Candida albicans) | pIC50 (HepG2) | pIC50 (SMMC-7721) | other results
C[C@]12C(=O)O[C@@H]3C=C4COC(=O)C=C4[C@@](C)(C=C[C@@H]1O)[C@@H]32 | 4.20 | Not Active | 4.42 | 4.38 | 4.38 | 4.20 | 16 µg/mL (≈ 55.5 µM) | – | – | –
C=C1[C@@H](O)C[C@@H]2[C@](C)(CCC[C@]2(C)C(=O)O)[C@H]1CC(=O)O | – | Not Active | – | – | – | – | inactive | – | – | IC50 (HeLa; hela): Not Active; IC50 (MCF7): Not Active; IC50 (MDA-MB-231; mda-mb-231): Not Active; IC50 (NCI-H460; nci-h460): Not Active; IC50 (SMMC-7721; smmc-7721): Not Active; IC50 (SW1990; sw1990): Not Active
CC1(C)S[C@@H]2[C@H](NC(=O)[C@H](N)c3ccccc3)C(=O)N2[C@H]1C(=O)O [AMPICILLIN] | – | – | – | – | – | – | – | – | – | MIC (Staphylococcus aureus): 8 µg/mL (≈ 22.9 µM); MIC (Pseudomonas fluorescens): 2 µg/mL (≈ 5.72 µM); MIC (Pseudomonas aeruginosa): 4 µg/mL (≈ 11.4 µM); MIC [1]: 4 µg/mL (≈ 11.4 µM)
C[C@]12C3=CC(=O)OCC3=C[C@H]3OC(=O)[C@@](C)(C=C[C@H]1O)[C@H]32 [ASPEROLIDE A] | 4.01 | – | – | – | 4.38 | 4.16 | inactive | 4.20 | 4.28 | IC50 (MCF7): Not Active
C[C@@]12C3=CC(=O)OCC3=C[C@H]3OC(=O)[C@](C)([C@H]31)[C@H]1O[C@H]1[C@H]2O [ASPEROLIDE B] | 4.25 | Not Active | 4.20 | 4.46 | 4.20 | 4.16 | – | – | – | –
COc1cccc2c1C(=O)c1c(O)c3c(c(O)c1C2=O)C[C@@](O)(C(=O)CO)C[C@@H]3O[C@H]1C[C@H](N)[C@H](O)[C@H](C)O1 [DOXORUBICIN] | 5.30 | – | 5.15 | 5.40 | – | – | – | 5.15 | 3.76 | –
O=c1[nH]cc(F)c(=O)[nH]1 [FLUOROURACIL] | 3.97 | – | – | 4.21 | 5.10 | 3.91 | – | 3.97 | 4.82 | –
C[C@@]12C3=CC(=O)OCC3=C[C@H]3OC(=O)[C@](C)([C@H]31)[C@@H](O)[C@H]1O[C@H]12 [WENTILACTONE A] | 4.28 | – | 4.16 | – | 4.55 | 4.38 | inactive | 4.46 | 4.55 | –
C[C@@]12C[C@@H](O)C[C@]3(C)C4=CC(=O)OCC4=C[C@@H](OC1=O)[C@@H]23 [WENTILACTONE B] | 4.38 | – | 4.25 | – | 4.62 | 4.62 | inactive | 4.42 | 4.77 | –
NYSTATIN | – | – | – | – | – | – | 2 µg/mL | – | – | –
